The source made the active and inactive calls. The calls are words filed in the database; no cut-off is given here.
Legend:
HT-22 [1] = assay: Neuroprotective activity against glutamate-induced cell death in mouse HT22 cells assessed as increase in cell viability at 0.15 to 38.46 uM incubated for 12 hrs by calcein-AM dye and propidium iodide staining based analysis; format: functional; details: dose microM 0.15-38.46, time 12.0 hrs
HT-22 [2] = assay: Neuroprotective activity against glutamate-induced cell death in mouse HT22 cells assessed as late apoptotic cells at 12.8 uM by Annexin-V FITC and propidium iodide staining based flow cytometric analysis (reference value: 4.62 %); format: functional
HT-22 [3] = assay: Induction of apoptosis in mouse HT22 cells assessed as necrotic cells at 12.8 uM by Annexin-V FITC and propidium iodide staining based flow cytometric analysis (reference value: 2.53 %); format: cell-based; details: ht-22, 12.8 µM
HT-22 [4] = assay: Neuroprotection against glutamate-induced apoptosis in mouse HT22 cells assessed as decrease in translocation of AIF to nucleus at 12.8 uM by Western blot analysis; format: functional, cell-based
HT-22 [5] = assay: Neuroprotective activity against glutamate-induced cell death in mouse HT22 cells assessed as early apoptotic cells at 12.8 uM by Annexin-V FITC and propidium iodide staining based flow cytometric analysis (reference value: 79.84 %); format: functional
HT-22 [6] = assay: Neuroprotective activity against glutamate-induced oxidative stress in mouse HT22 cells assessed as reduction in intracellular ROS accumulation at 12.8 uM by DCF-DA staining based fluorescence assay; format: functional, cell-based
[7] = Induction of apoptosis in mouse HT22 cells assessed as viable cells at 12.8 uM by Annexin-V FITC and propidium iodide staining based flow cytometric analysis (reference value: 87.05 %); format: cell-based, HT-22; details: read-out: Activity
[8] = Antioxidant activity assessed as DPPH radical scavenging activity; format: functional
Caenorhabditis elegans = assay: Neuroprotective activity against 6-OHDA induced neuronal dysfunction in Caenorhabditis elegans N2 assessed as increase in number of body bending at 100 uM incubated for 1 hr and measured for 20 sec; format: functional, organism-based
[9] = target: MAP kinase p38 (Mus musculus) (UniProt P47811+O08911+Q9WUI1+Q9Z1B7); assay: Inhibition of glutamate-induced p38 MAPK activation in mouse HT22 cells assessed as reduction in phosphorylated p38 MAPK protein level by Western blot analysis; format: cell-based; details: HT-22, dose microM 1.4-12.8
HT-22 [10] = assay: Neuroprotection against glutamate-induced apoptosis in mouse HT22 cells assessed as reduction in bax protein level at 1.4 to 12.8 uM by Western blot analysis; format: functional, cell-based; details: dose microM 1.4-12.8
HT-22 [11] = assay: Induction of apoptosis in mouse HT22 cells assessed as early apoptotic cells at 12.8 uM by Annexin-V FITC and propidium iodide staining based flow cytometric analysis (reference value: 3.37 %); format: cell-based; details: ht-22, 12.8 µM
HT-22 [12] = assay: Neuroprotective activity against glutamate-induced cell death in mouse HT22 cells assessed as live cells at 12.8 uM by Annexin-V FITC and propidium iodide staining based flow cytometric analysis (reference value: 15.03 %); format: functional
HT-22 [13] = assay: Induction of apoptosis in mouse HT22 cells assessed as late apoptotic cells at 12.8 uM by Annexin-V FITC and propidium iodide staining based flow cytometric analysis (reference value: 7.05 %); format: cell-based; details: ht-22, 12.8 µM
HT-22 [14] = assay: Inhibition of glutamate-induced ERK activation in mouse HT22 cells assessed as reduction in phosphorylated ERK protein level by Western blot analysis; format: cell-based; details: dose microM 1.4-12.8
HT-22 [15] = assay: Neuroprotective activity against glutamate-induced cell death in mouse HT22 cells assessed as necrotic cells at 12.8 uM by Annexin-V FITC and propidium iodide staining based flow cytometric analysis (reference value: 0.51 %); format: functional
HT-22 [16] = assay: Inhibition of glutamate-induced JNK activation in mouse HT22 cells assessed as reduction in phosphorylated JNK protein level by Western blot analysis; format: cell-based; details: dose microM 1.4-12.8
Hippocampus = assay: Inhibition of erastin induced ferroptotic-cell death in rat hippocampal culture by propidium iodide uptake based fluorescence analysis; format: functional, tissue-based
HT-22 [17] = assay: Neuroprotection against glutamate-induced apoptosis in mouse HT22 cells assessed as increase in bcl2 protein level at 1.4 to 12.8 uM by Western blot analysis; format: functional, cell-based; details: dose microM 1.4-12.8
HT-22 [18] = assay: Neuroprotection against glutamate-induced Ca2+ homeostasis disruption in mouse HT22 cells assessed as reduction in intracellular Ca2+ uptake at 1.4 to 12.8 uM by Fluo3-AM staining based fluorescent microscopic method; format: functional, cell-based; details: dose microM 1.4-12.8
HT-22 [19] = assay: Neuroprotection against glutamate-induced apoptosis in mouse HT22 cells assessed as decrease in translocation of AIF to nucleus at 12.8 uM by immunostaining analysis; format: functional, cell-based
[20] = target: T1, Nuclear factor erythroid 2-related factor 2 (Homo sapiens) (UniProt Q16236); assay: Activation of Nrf2 in human HepG2 cells co-transfected with ARE luciferase gene assessed as increase in ARE-driven luciferase activity by luciferase reporter gene assay; format: cell-based; details: filed as activator
T1 sequence (whole entry): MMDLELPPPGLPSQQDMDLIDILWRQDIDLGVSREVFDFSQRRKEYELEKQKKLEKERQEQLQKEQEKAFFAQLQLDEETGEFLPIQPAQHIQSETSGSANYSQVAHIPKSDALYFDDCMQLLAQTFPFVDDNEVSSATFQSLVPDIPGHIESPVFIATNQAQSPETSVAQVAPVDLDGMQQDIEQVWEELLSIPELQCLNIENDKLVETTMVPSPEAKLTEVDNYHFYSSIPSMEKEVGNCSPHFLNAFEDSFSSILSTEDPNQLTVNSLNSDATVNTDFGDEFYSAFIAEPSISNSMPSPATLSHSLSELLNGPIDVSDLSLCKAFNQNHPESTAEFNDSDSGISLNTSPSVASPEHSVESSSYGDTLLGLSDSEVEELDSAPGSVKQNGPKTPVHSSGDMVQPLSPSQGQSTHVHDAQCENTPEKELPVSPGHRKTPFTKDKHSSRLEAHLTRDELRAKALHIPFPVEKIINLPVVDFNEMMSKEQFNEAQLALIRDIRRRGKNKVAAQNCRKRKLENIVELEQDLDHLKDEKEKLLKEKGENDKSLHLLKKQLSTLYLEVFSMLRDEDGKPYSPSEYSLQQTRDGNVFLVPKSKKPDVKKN

HT-22 [21] = assay: Neuroprotective activity against glutamate-induced cell death in mouse HT22 cells assessed as cell viability at 12.8 uM incubated for 12 hrs by calcein AM dye and propidium iodide staining based analysis (reference value: 50%); format: functional; details: read-out: Activity

## COc1ccc2c(c1)C(=O)/C(=C/c1ccc(N(C)C)cc1)CC2
HT-22 [1]
  Activity: Active

## COc1cccc(/C=C2\CCc3ccc(OC)cc3C2=O)c1
HT-22 [1]
  Activity: Active

## COc1ccc2c(c1)C(=O)/C(=C/c1ccc(O)cc1)CC2
HT-22 [1]
  Activity: inactive

## COc1ccc2c(c1)C(=O)/C(=C/c1ccc(OC)c(OC)c1)CC2
HT-22 [1]
  Activity: Active

## COc1cc(OC)c(/C=C2\CCc3ccc(OC)cc3C2=O)c(OC)c1
HT-22 [1]
  Activity: Active

## COc1ccc2c(c1)C(=O)/C(=C/c1cc(OC)c(Br)c(OC)c1)CC2
HT-22 [1]
  Activity: Active

## COc1ccc2c(c1)C(=O)/C(=C/c1cc(OC)c(OC)c(OC)c1)CC2
HT-22 [1]
  Activity: Active

## COc1ccc2c(c1)C(=O)/C(=C/c1cccc(O)c1)CC2
HT-22 [1]
  Activity: inactive

## COc1ccc2c(c1)C(=O)/C(=C/c1c[nH]c3ccccc13)CC2
HT-22 [2]
  Activity: 5.92%
HT-22 [3]
  Activity: 2.08%
HT-22 [4]
  Activity: Active
HT-22 [5]
  Activity: 1.03%
HT-22 [6]
  Activity: Active
[7]
  viability at 12.8 µM: 88.2%
[8]
  Activity: inactive
Caenorhabditis elegans
  Activity: Active
[9]
  inhibition: Dose-dependent effect
HT-22 [10]
  Activity: Active
HT-22 [11]
  Activity: 0.95%
HT-22 [12]
  Activity: 91.37%
HT-22 [13]
  Activity: 8.72%
HT-22 [14]
  inhibition: Dose-dependent effect
HT-22 [15]
  Activity: 1.68%
HT-22 [16]
  inhibition: Dose-dependent effect
Hippocampus
  inhibition: inactive
HT-22 [17]
  Activity: Active
HT-22 [18]
  Activity: Active
HT-22 [19]
  Activity: Active
[20]
  Activity: Active
HT-22 [21]
  viability at 12.8 µM: > 80%

## COc1ccc2c(c1)C(=O)/C(=C/c1cc(OC)c(OC)cc1Br)CC2
HT-22 [1]
  Activity: Active

Source: ChEMBL document CHEMBL4699553, “Synthesis and biological evaluation of chalcone derivatives as neuroprotective agents against glutamate-induced HT22 mouse hippocampal neuronal cell death” (Bioorg Med Chem Lett, 2020)
